The source of these data is patent publication US20240174670A1, “4-AMINO-6-OXO-PYRIDAZINE DERIVATIVES MODULATING NLRP3” (JANSSEN PHARMACEUTICA NV, priority 2021, published 2024).

For orientation: AC50 means the midpoint of the concentration-response curve, whichever way the signal moves.

In assay [1] the test system is IL-1β. Kind of assay: PBMC assay, IL-1β release after LPS stimulation. The format is cell-based. Conditions: human PBMCs, 30 min preincubation, 100 ng/ml LPS for 6 hrs, supernatant, MSD technology, read-out: IL1β AC50. The procedure: The activity of a compound according to the present invention can be assessed by in vitro methods.
(§1) Peripheral venous blood was collected from healthy individuals and human peripheral blood mononuclear cells (PBMCs) were isolated from blood by Ficoll-Histopaque (Sigma-Aldrich, A0561) density gradient centrifugation. After isolation, PBMCs were stored in liquid nitrogen for later use. Upon thawing, PBMC cell viability was determined in growth medium (RPMI media supplemented with 10% fetal bovine serum, 1% Pen-Strep and 1% L-glutamine). Compounds were spotted in a 1:3 serial dilution in DMSO and diluted to the final concentration in 30 μl medium in 96 well plates (Falcon, 353072). PBMCs were added at a density of 7.5×10^4 cells per well and incubated for 30 min in a 5% CO2 incubator at 37 ° C. LPS stimulation was performed by addition of 100 ng/ml LPS (final concentration, Invivogen, tlrl-smlps) for 6 hrs followed by collection of cellular supernatant and the analysis of IL-1β[…] and TNF cytokines levels (uμ) via MSD technology according to manufacturers' guidelines (MSD, K151A0H).
(§2) IC50 and AC50 values (for IL-1β) and EC50 and AC50 values (TNF) were obtained on compounds of the invention/examples, and the AC50 values are depicted in the following table: […]

Assay [2] concerns TNF. The experiment in a line: PBMC assay, TNF release after LPS stimulation. It is filed as cell-based. As to conditions: human PBMCs, 30 min preincubation, 100 ng/ml LPS for 6 hrs, supernatant, MSD technology. How it is done: as §1, §2

For `CC(C)c1nn(CC(=O)Nc2ccc3nncn3c2)c(=O)cc1Nc1ccccc1` [Compound 1, 2-(4-anilino-3-isopropyl-6-oxo-pyridazin-1-yl)-N-([1,2,4]triazolo[4,3-a]pyridin-6-yl)acetamide], the AC50 is > 15 µM in assay [1] and > 10 µM in assay [2].

As for `CC(C)c1nn(CC(=O)Nc2ccc3nncn3c2)c(=O)cc1N1Cc2cc(F)cnc2C1` [Compound 34], the AC50 in assay [1] and in assay [2] was > 20 µM each time.

As for `CC(C)c1nn(CC(=O)Nc2ccc3nncn3c2)c(=O)cc1N(C)C1CC1` [Compound 67], the values for the AC50 in assay [1] and in assay [2] were 10.2 µM and > 20 µM, respectively.

On to `CC(C)c1nn(CC(=O)Nc2ccc3nncn3c2)c(=O)cc1NC(C)C1CC1(F)F` (centres unmarked) [Compound 40, N-([1,2,4]triazolo[4,3-a]pyridin-6-yl)-2-(4-((1-(2,2-difluorocyclopropyl)ethyl)amino)-3-isopropyl-6-oxopyridazin-1(6H)-yl)acetamide], for which the AC50 in assay [1] and in assay [2] was > 20 µM throughout.

Consider `CC(C)c1nn(CC(=O)Nc2ccc3nncn3c2)c(=O)cc1Nc1ccc2oncc2c1` [Compound 41, N-([1,2,4]triazolo[4,3-a]pyridin-6-yl)-2-(4-(benzo[d]isoxazol-5-ylamino)-3-isopropyl-6-oxopyridazin-1(6H)-yl)acetamide], for which the concentration at half-maximal activity (AC50) in assay [1] and in assay [2] was > 20 µM in each case.

Take `CC(C)c1nn(CC(=O)Nc2ccc3nncn3c2)c(=O)cc1N1CC2(C1)CC(F)(F)C2` [Compound 53]: the AC50 in assay [1] and in assay [2] was > 20 µM in each case.

Turning to `CC(C)c1nn(CC(=O)Nc2ccc3nncn3c2)c(=O)cc1N1CCC(Oc2ccccn2)C1` (centres unmarked) [Compound 59], the figures for the AC50 in assay [1] and in assay [2] were 9.92 µM and 16.1 µM, respectively.

On to `CC(C)c1nn(CC(=O)Nc2ccc3nncn3c2)c(=O)cc1N1CCC(C)(O)CC1` [Compound 36], for which the AC50 in assay [1] and in assay [2] was > 20 µM throughout.

For `CC(C)c1nn(CC(=O)Nc2ccc3nncn3c2)c(=O)cc1N1CCCCC1C` (centres unmarked) [Compound 54], the AC50 was 3.62 µM in assay [1] and > 20 µM in assay [2].

Take `CC(C)c1nn(CC(=O)Nc2ccc3nncn3c2)c(=O)cc1N1CCC(F)(F)C1` [Compound 13]: the concentration at half-maximal activity (AC50) in assay [1] was 0.66 µM; in assay [2], > 10 µM.

Regarding `CC(C)c1nn(CC(=O)Nc2ccc3nncn3c2)c(=O)cc1NCC(F)c1ccccc1` (centres unmarked) [Compound 37], the AC50 in assay [1] and in assay [2] was > 20 µM each time.

For the molecule `CC(C)c1nn(CC(=O)Nc2ccc3nncn3c2)c(=O)cc1Nc1cccc2ocnc12` [Compound 42], the half-maximal activity concentration (AC50) in assay [1] and in assay [2] was > 20 µM in each case.

`CC(C)c1nn(CC(=O)Nc2ccc3nncn3c2)c(=O)cc1N1CCCC(F)C1` (centres unmarked) [Compound 60]: the values for the AC50 in assay [1] and in assay [2] were 1.59 µM and 19.1 µM, respectively.

For the molecule `CC(C)c1nn(CC(=O)Nc2ccc3nncn3c2)c(=O)cc1N1CCCCC1` [Compound 45, N-([1,2,4]triazolo[4,3-a]pyridin-6-yl)-2-(3-isopropyl-6-oxo-4-(piperidin-1-yl)pyridazin-1(6H)-yl)acetamide], the concentration at half-maximal activity (AC50) was 1.23 µM in assay [1] and > 20 µM in assay [2].

Consider `CC(C)c1nn(CC(=O)Nc2ccc3nncn3c2)c(=O)cc1N1CCC[C@H](C)C1` [Compound 55], for which the AC50 in assay [1] is 0.51 µM; in assay [2] it was > 20 µM.

Turning to `CC(C)c1nn(CC(=O)Nc2ccc3nncn3c2)c(=O)cc1Nc1cnn(CC23CC(CO2)C3)c1` [Compound 2], the AC50 in assay [1] is > 15 µM; in assay [2], > 10 µM.

On to `CC(C)c1nn(CC(=O)Nc2ccc3nncn3c2)c(=O)cc1N1CC[C@@H](F)C1` [Compound 10], for which the AC50 was 0.53 µM in assay [1] and > 10 µM in assay [2].

Turning to `CC(C)c1nn(CC(=O)Nc2ccc3nncn3c2)c(=O)cc1N1CC(C)(O)C1` [Compound 26], the values for the AC50 in assay [1] and in assay [2] were > 15 µM and > 10 µM, respectively.

Regarding `CC1CN(c2cc(=O)n(CC(=O)Nc3ccc4nncn4c3)nc2C(C)C)C1` [Compound 23], the AC50 was 0.71 µM in assay [1] and > 10 µM in assay [2].
